Measurements as given in patent publication US10501459B2, “Substituted imidazo[1,2-a]pyridines as bromodomain inhibitors” (NEOMED Institute, priority 2015, dated 2019).
pIC50: −log10 of the molar value.

What was measured:
BRD4(BD1) = molecular target: T1, BRD4(BD1) (Homo sapiens, UniProt O60885); assay: In vitro bromodomain inhibition, BRD4(BD1) / biotinylated H4-tetraacetyl peptide AlphaLISA; type: binding; conditions: His-tagged BRD4 BD1 200 nM, H4 peptide 200 nM, read-out: BRD4α (IC50)
T1 construct: purchased BPS Bioscience
Experimental: a) In Vitro Bromodomain Inhibition
To measure activity of bromodomain inhibitors, a His-epitope tagged BRD4 BD149-170 is purchased from BPS Bioscience. BRD4 binding and inhibition is assessed by monitoring the engagement of biotinylated H4-tetraacetyl peptide (H4K5/8/12/16; AnaSpec #64989-025) with the target using the AlphaLISA technology (Perkin-Elmer). Specifically, in a 384 well OptiPlate, BRD4(BD1) (200 nM final) is pre-incubated with either DMSO (final 1.0% DMSO) or a compound dilution series in DMSO. All reagents are diluted in assay buffer containing 50 mM HEPES (pH 7.4), 100 mM NaCl, 0.1% (w/v) BSA, and 0.05% (w/v) CHAPS. After a 30 minute incubation at room temperature, H4 peptide is added (200 nM final) and the reaction is incubated an additional 30 minutes at room temperature. Alpha streptavidin donor beads and AlphaLISA nickel chelate acceptor beads are then added to a final concentration of 10 μg/mL each. After one hour, equilibration plates are read on an Envision instrument and IC50s calculated using a four parameter non-linear curve fit.

[1] = system: human C-Myc gene transcription in MV-4-11 cells; assay: Transcription of human C-Myc in human leukemic MV-4-11 cells (QuantiGene 2.0); type: cell-based; conditions: Homo sapiens, MV4-11, 4 h, inhibition of C-Myc mRNA, 4 hours treatment
Experimental: b) Transcription of Human C-Myc in Human Leukemic MV-4-11 Cells:
The effect of compounds on transcription of human C-Myc gene is monitored in human B-myelomonocytic leukemia cell line MV-4-11 (from American Type Culture Collection (ATCC), Manassas, Va., USA) using QuantiGene 2.0 assay kit (Affymetrix, Santa Clara, Calif., USA).
Typically, 8,000 MV-4-11 cells are plated in sterile 96-well plates (Costar #3598 from Fisher Scientific Canada, Ottawa, Ontario, Canada) in Iscove's medium supplemented with 10% fetal bovine serum, glutamine (2 mM), and penicillin (100 I.U.) and streptomycin (100 μg/mL) (all from Wisent Inc., St. Bruno, Quebec, Canada). Compounds are dissolved in DMSO at 30 mM. A series of 1:3 dilutions are first made in DMSO, and further […] dilutions are made in serum-containing cell culture media. The final concentration of DMSO is […] in cell culture media. After cells are treated with various concentrations of test compound for 4 hours, cells are lysed using Quantigene 2.0 sample processing kit (#QS0100). C-Myc mRNA is detected using a QuantiGene 2.0 assay kit (#QS0009) with gene-specific probe to human C-Myc (#SA-50182) following the manufacturer's recommendations. Luminescene signals are read on Flexstation II microplate reader (Molecular Devices, Sunnyvale, Calif., USA). Percentage of inhibition of C-Myc transcription is analyzed using EXCEL (2010 version).

Row | pIC50 (BRD4(BD1)) | pIC50 [1] | Compound
1 | 6.71 | 6.07 | Cc1cc(-c2ccc3ncc(CN4CCCCC4)n3c2)cn(C)c1=O [Compound 8, 1,3-dimethyl-5-[3-(1-piperidylmethyl)imidazo[1,2-a]pyridin-6-yl]pyridin-2-one]
2 | 6.50 | 6.08 | Cc1cc(-c2ccc3ncc(CNc4ccccc4)n3c2)cn(C)c1=O [Compound 10, 5-[3-(anilinomethyl)imidazo[1,2-a]pyridin-6-yl]-1,3-dimethyl-pyridin-2-one]
3 | 7.00 | 7.23 | Cc1cc(-c2ccc3ncc(Cc4ccc(F)cc4)n3c2)cn(C)c1=O [Compound 2, 5-[3-[(4-fluorophenyl)methyl]imidazo[1,2-a]pyridin-6-yl]-1,3-dimethyl-pyridin-2-one]
4 | 6.84 | 7.06 | Cc1cc(-c2ccc3ncc(Cc4ccc(Cl)cc4)n3c2)cn(C)c1=O [Compound 3, 5-[3-[(4-chlorophenyl)methyl]imidazo[1,2-a]pyridin-6-yl]-1,3-dimethyl-pyridin-2-one]
5 | 6.51 | 6.56 | COc1ccc(Cc2cnc3ccc(-c4cc(C)c(=O)n(C)c4)cn23)cc1 [Compound 4, 5-[3-[(4-methoxyphenyl)methyl]imidazo[1,2-a]pyridin-6-yl]-1,3-dimethyl-pyridin-2-one]
6 | 6.91 | 7.24 | Cc1cc(-c2ccc3ncc(Cc4ccccc4)n3c2)cn(C)c1=O [Compound 1, 5-(3-benzylimidazo[1,2-a]pyridin-6-yl)-1,3-dimethyl-pyridin-2-one]
7 | 6.95 | 7.03 | Cc1cc(-c2ccc3ncc(Cc4cccc(F)c4)n3c2)cn(C)c1=O [Compound 5, 5-[3-[(3-fluorophenyl)methyl]imidazo[1,2-a]pyridin-6-yl]-1,3-dimethyl-pyridin-2-one]

Row | Compound | pIC50 (BRD4(BD1)) | pIC50 [1]
8 | Cc1cc(-c2ccc3ncc(COC4CCCC4)n3c2)cn(C)c1=O [Compound 9, 5-[3-(cyclopentoxymethyl)imidazo[1,2-a]pyridin-6-yl]-1,3-dimethyl-pyridin-2-one] | 6.82 | 6.82
